Source: patent US6531475B1, “CRF receptor antagonists and methods relating thereto” (Neurocrine Biosciences, Inc., priority 1998, dated 2003)
Like-named read-outs stand apart in the source and are kept apart here.

Target: T1, human CRF receptors (Homo sapiens, UniProt P34998)
T1 construct: expressed in transfected cells; stably transfected cells, used as membrane suspension
T1 sequence (P34998 24-415): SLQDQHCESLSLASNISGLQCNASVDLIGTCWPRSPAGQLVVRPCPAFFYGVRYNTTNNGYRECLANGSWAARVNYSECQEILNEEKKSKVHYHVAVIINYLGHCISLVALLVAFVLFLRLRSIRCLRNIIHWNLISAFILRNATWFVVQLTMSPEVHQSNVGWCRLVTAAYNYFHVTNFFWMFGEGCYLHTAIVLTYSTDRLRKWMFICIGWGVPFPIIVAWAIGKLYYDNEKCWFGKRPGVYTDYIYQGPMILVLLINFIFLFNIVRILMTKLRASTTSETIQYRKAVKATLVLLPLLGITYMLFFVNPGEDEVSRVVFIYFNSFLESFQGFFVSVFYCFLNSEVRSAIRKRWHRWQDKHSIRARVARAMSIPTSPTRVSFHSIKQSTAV
Test: CRF receptor radioligand binding assay (displacement of [125I]tyrosine-ovine CRF)
Details: cells stably transfected with human CRF receptors, read-out: Ki (CRF receptor binding affinity)
Text: The effectiveness of a compound as a CRF receptor antagonist may be determined by various assay methods. Suitable CRF antagonists of this invention are capable of inhibiting the specific binding of CRF to its receptor and antagonizing activities associated with CRF. A compound of structure (I) may be assessed for activity as a CRF antagonist by one or more generally accepted assays for this purpose, including (but not limited to) the assays disclosed by DeSouza et al. (J. Neuroscience 7:88, 1987) and Battaglia et al. (Synapse 1:572, 1987). […] CRF receptor affinity may be determined by binding studies that measure the ability of a compound to inhibit the binding of a radiolabeled CRF (e.g., [^125I]tyrosine-CFR) to its receptor (e.g., receptors prepared from rat cerebral cortex membranes). The radioligand binding assay described by DeSouza et al. (supra, 1987) provides an assay for determining a compound's affinity for the CRF receptor. Such activity is typically calculated from the IC50 as the concentration of a compound necessary to displace 50% of the radiolabeled ligand from the receptor, and is reported as a “Ki” value calculated by the following equation: [formula]
where L=radioligand and KD=affinity of radioligand for receptor (Cheng and Prusoff, Biochem. Pharmacol. 22:3099, 1973).
With reference to CRF receptor binding affinities, CRF receptor antagonists of this invention have a Ki of less than 10 μM. […] As set forth in greater detail below, the Ki values of representative compounds of this invention were assayed by the methods set forth in Example 9.
The compounds of this invention may be evaluated for binding activity to the CRF receptor by a standard radioligand binding assay as generally described by DeSouza et al. (J. Neurosci. 7:88-100, 1987). By utilizing various radiolabeled CRF ligands, the assay may be used to evaluate the binding activity of the compounds of the present invention with any CRF receptor subtype. Briefly, the binding assay involves the displacement of a radiolabeled CRF ligand from the CRF receptor.
More specifically, the binding assay is performed in 1.5 ml Eppendorf tubes using approximately 1×10^6 cells per tube stably transfected with human CRF receptors. Each tube receives about 0.1 ml of assay buffer (e.g., Dulbecco's phosphate buffered saline, 10 mM magnesium chloride, 20 μM bacitracin) with or without unlabeled sauvagine, urotensin I or CRF (final concentration, 1 μM) to determine nonspecific binding, 0.1 ml of […] tyrosine-ovine CRF (final concentration ˜200 pM or approximately the KD as determined by Scatchard analysis) and 0.1 ml of a membrane suspension of cells containing the CRF receptor. The mixture is incubated for 2 hours at 22° C. followed by the separation of the bound and free radioligand by centrifugation. Following two washes of the pellets, the tubes are cut just above the pellet and monitored in a gamma counter for radioactivity at approximately 80% efficiency. All radioligand binding data may be analyzed using the non-linear least-square curve-fitting program LIGAND of Munson and Rodbard (Anal. Biochem. 107:220, […]).

| Structure (SMILES) | Ki (more preferred compounds) | Ki (preferred compounds) |
| --- | --- | --- |
| Cc1cc2c3c(n1)c(-c1ccc(Cl)cc1Cl)nn3CCN2C1CCCCC1C (stereo not drawn) [I-2a-6] | < 250 nM |  |
| Cc1cc2c3c(n1)c(-c1ccc(Cl)cc1Cl)nn3CCN2C1CCCc2ccccc21 (stereo not drawn) [I-2a-8] | < 250 nM | < 1000 nM |
| Cc1cc2c3c(n1)c(-c1ccc(Cl)cc1Cl)nn3CCN2C(C)CCCC(C)C (stereo not drawn) [I-2a-9] | < 250 nM | < 1000 nM |
| CC[C@H]1Cn2nc(-c3ccc(C(F)(F)F)cc3OC)c3nc(C)cc(c32)N1Cc1ccc(F)cc1 [I-2a-76] | < 250 nM |  |
| CC[C@H]1Cn2nc(-c3ccc(C(C)C)cc3C(F)(F)F)c3nc(C)cc(c32)N1CC(C)C [I-2a-173] |  | < 1000 nM |
| C=C1CN(C(CCC)CCC)c2nc(C)nc3c2c1cn3-c1ccc(Cl)cc1Cl [I-4b-1] | < 250 nM | < 1000 nM |
| CCCC(CCC)N1CC(C)c2cn(-c3ccc(Cl)cc3Cl)c3nc(C)nc1c23 (stereo not drawn) [I-4b-2] | < 250 nM | < 1000 nM |
| COc1cc(C(F)(F)F)ccc1-c1nn2c3c(cc(C)nc13)N(CCC(C)C)[C@@H](C)C2 [i-2a-92] |  | < 1000 nM |
